ChEMBL document CHEMBL3774309, “SAR Exploration Guided by LE and Fsp(3): Discovery of a Selective and Orally Efficacious RORγ Inhibitor” (ACS Med Chem Lett, 2016)

Columns and labels:
[1] = target: T1, Nuclear receptor ROR-gamma (Mus musculus, UniProt P51450); assay: Inhibition of mouse RORgamma ligand binding domain (Isoleucine 251 to Lysine 516) expressed in CHOK1 cells incubated for 2 days by Gal4 luciferase reporter gene assay; assay type: cell-based, CHO-K1
T1 sequence (P51450 whole entry): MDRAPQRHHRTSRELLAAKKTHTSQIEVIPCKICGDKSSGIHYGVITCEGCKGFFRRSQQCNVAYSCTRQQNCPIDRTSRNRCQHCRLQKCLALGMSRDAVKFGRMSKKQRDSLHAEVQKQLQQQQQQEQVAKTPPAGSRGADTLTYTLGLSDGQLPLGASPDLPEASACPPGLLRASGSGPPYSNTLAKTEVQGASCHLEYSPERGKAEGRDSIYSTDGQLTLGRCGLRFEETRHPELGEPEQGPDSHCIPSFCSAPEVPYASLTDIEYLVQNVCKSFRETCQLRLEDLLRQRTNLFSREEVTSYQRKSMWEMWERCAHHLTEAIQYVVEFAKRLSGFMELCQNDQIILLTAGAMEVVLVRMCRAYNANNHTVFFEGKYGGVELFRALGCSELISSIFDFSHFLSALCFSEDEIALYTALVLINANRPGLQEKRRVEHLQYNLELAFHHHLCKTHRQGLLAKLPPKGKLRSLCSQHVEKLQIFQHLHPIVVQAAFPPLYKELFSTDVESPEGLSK

[2] = Metabolic stability in liver S9 fraction (unknown origin) assessed as parent compound remaining incubated for 10 mins; assay type: ADME, subcellular; details: human, read-out: Stability
[3] = Metabolic stability in liver S9 fraction (unknown origin) assessed as parent compound remaining incubated for 60 mins; assay type: ADME, subcellular; details: human, read-out: Stability
[4] = target: T2, Nuclear receptor ROR-gamma (Homo sapiens, UniProt P51449)
T2 sequence (P51449 whole entry): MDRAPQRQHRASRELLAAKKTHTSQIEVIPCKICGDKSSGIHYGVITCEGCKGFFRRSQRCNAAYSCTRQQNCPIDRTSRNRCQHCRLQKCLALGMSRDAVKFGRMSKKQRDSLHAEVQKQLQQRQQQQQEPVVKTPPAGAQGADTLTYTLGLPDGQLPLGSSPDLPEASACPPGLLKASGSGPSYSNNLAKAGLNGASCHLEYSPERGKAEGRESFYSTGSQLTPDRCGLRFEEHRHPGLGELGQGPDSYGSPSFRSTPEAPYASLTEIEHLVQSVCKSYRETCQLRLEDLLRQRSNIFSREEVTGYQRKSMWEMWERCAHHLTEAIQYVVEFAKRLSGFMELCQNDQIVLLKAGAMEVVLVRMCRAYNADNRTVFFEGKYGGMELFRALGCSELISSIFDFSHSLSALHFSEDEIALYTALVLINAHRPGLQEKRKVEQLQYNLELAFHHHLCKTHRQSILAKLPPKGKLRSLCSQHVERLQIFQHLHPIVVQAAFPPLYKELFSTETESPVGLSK
Description: Inhibition of human RORgamma ligand binding domain (Serine 253 to Lysine 518 residues) expressed in CHOK1 cells incubated for 2 days by Gal4 luciferase reporter gene assay

[5] = Metabolic stability in human liver microsomes assessed as parent compound remaining incubated for 10 mins; assay type: ADME; details: read-out: Stability
Cytochrome P450 3A4 [6] = target: T3, Cytochrome P450 3A4 (Homo sapiens, UniProt P08684); assay: Inhibition of CYP3A4 in human liver microsomes using midazolam as substrate preincubated with substrate for 5 mins followed by NADPH addition measured after 20 mins by HPLC analysis; assay type: ADME
T3 sequence (P08684 whole entry, the tested form may be a part): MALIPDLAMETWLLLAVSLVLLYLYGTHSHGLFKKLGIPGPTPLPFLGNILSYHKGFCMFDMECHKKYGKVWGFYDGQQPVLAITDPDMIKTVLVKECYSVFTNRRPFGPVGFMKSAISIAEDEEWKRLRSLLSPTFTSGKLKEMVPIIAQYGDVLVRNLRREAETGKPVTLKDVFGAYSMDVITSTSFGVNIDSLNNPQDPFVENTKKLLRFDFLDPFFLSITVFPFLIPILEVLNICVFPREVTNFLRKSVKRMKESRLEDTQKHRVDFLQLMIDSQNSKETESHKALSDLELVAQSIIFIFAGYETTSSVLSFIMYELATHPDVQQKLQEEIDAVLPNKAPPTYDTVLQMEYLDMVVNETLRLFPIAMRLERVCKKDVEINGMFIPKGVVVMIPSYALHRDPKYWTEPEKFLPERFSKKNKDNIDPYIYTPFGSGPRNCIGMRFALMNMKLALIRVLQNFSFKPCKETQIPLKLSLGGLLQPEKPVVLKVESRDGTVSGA

[7] = target: T2, Nuclear receptor ROR-gamma; assay: Inhibition of human GST-tagged RORgamma ligand binding domain (253 to 518 residues) expressed in sf9 cells using biotin-EEPSLLKKLLLAPA by FRET assay
Cytochrome P450 3A4 [8] = target: T3, Cytochrome P450 3A4; assay: Inhibition of human CYP3A4
Cytochrome P450 2C9 = Cytochrome P450 2C9 (Homo sapiens, UniProt P11712); assay: Inhibition of CYP2C9 in human liver microsomes using diclofenac as substrate preincubated with substrate for 5 mins followed by NADPH addition measured after 20 mins by HPLC analysis; assay type: ADME
Cytochrome P450 2D6 = Cytochrome P450 2D6 (Homo sapiens, UniProt P10635); assay: Inhibition of CYP2D6 in human liver microsomes using bufuralol as substrate preincubated with substrate for 5 mins followed by NADPH addition measured after 20 mins by HPLC analysis; assay type: ADME
Sequence of Cytochrome P450 2D6 (P10635 whole entry): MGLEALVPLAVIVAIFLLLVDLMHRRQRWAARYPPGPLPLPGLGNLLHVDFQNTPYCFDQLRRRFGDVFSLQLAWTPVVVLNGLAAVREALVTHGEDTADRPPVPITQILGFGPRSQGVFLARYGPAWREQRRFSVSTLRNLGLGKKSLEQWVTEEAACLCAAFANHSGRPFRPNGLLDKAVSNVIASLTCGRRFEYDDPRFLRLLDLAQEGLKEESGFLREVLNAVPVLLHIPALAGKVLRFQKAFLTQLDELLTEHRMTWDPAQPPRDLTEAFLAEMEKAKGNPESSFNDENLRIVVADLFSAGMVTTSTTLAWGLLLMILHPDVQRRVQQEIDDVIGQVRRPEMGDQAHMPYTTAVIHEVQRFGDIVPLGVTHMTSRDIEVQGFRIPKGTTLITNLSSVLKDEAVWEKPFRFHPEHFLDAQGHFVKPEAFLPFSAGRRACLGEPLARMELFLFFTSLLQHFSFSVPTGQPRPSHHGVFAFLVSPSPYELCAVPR

Cytochrome P450 1A2 = Cytochrome P450 1A2 (Homo sapiens, UniProt P05177); assay: Inhibition of CYP1A2 in human liver microsomes using ethoxyresorufin as substrate preincubated with substrate for 5 mins followed by NADPH addition measured after 20 mins by HPLC analysis; assay type: ADME
Sequence of Cytochrome P450 1A2 (P05177 whole entry): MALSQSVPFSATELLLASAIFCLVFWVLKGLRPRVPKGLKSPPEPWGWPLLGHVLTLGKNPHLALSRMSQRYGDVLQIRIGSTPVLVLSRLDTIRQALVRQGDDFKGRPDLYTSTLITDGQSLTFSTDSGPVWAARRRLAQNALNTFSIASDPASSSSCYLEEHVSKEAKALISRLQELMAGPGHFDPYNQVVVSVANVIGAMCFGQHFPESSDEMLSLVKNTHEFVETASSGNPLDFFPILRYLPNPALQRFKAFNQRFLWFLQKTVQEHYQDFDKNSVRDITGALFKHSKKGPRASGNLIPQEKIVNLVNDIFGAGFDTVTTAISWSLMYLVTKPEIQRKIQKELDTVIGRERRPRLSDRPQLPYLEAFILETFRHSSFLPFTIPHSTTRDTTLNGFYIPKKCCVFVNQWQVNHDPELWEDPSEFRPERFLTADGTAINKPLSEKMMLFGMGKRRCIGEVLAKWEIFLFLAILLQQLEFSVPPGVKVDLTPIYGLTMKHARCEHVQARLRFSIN

Cytochrome P450 2A6 = Cytochrome P450 2A6 (Homo sapiens, UniProt P11509); assay: Inhibition of CYP2A6 in human liver microsomes using coumarin as substrate preincubated with substrate for 5 mins followed by NADPH addition measured after 20 mins by HPLC analysis; assay type: ADME
Cytochrome P450 2C19 = Cytochrome P450 2C19 (Homo sapiens, UniProt P33261); assay: Inhibition of CYP2C19 in human liver microsomes using S-mephenytoin as substrate preincubated with substrate for 5 mins followed by NADPH addition measured after 20 mins by HPLC analysis; assay type: ADME
Sequence of Cytochrome P450 2C19 (P33261 whole entry): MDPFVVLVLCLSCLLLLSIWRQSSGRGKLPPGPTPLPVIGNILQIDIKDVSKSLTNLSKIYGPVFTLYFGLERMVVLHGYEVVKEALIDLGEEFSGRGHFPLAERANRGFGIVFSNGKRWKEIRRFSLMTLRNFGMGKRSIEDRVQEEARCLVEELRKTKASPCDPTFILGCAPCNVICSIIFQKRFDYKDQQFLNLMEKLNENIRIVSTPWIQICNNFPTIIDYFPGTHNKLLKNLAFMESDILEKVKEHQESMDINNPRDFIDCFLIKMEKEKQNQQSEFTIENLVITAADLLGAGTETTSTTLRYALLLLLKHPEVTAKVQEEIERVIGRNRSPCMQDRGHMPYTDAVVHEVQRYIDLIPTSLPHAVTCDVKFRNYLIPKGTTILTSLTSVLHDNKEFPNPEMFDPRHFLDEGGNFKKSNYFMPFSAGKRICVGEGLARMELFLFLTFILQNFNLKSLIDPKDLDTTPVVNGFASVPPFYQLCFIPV

[9] = target: Nuclear receptor ROR-alpha (Homo sapiens, UniProt P35398); assay: Inhibition of human RORalpha
Steroidogenic factor 1 = Steroidogenic factor 1 (Homo sapiens, UniProt Q13285); assay: Inhibition of human SF-1 receptor
Sequence of Steroidogenic factor 1 (Q13285 whole entry): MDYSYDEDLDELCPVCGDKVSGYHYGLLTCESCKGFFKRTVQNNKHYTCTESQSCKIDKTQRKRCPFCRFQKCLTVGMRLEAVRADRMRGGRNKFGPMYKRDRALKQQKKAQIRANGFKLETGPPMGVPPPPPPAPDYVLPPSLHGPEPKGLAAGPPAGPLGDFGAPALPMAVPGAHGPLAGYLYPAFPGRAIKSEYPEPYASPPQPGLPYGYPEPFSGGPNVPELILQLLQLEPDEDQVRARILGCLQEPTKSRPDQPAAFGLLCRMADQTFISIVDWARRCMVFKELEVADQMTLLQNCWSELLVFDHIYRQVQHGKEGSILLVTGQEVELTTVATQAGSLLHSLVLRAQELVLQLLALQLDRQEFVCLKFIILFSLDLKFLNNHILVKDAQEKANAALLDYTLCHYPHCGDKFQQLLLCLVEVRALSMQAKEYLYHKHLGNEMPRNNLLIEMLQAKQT

[10] = target: Nuclear receptor ROR-beta (Homo sapiens, UniProt Q92753); assay: Inhibition of human RORbeta
Glucocorticoid receptor = Glucocorticoid receptor (Mus musculus, UniProt P06537); assay: Inhibition of mouse GR
[11] = target: Retinoic acid receptor RXR-alpha (Homo sapiens, UniProt P19793); assay: Inhibition of human RXRalpha
Vitamin D3 receptor = Vitamin D3 receptor (Homo sapiens, UniProt P11473); assay: Inhibition of human VDR
Bile acid receptor = Bile acid receptor (Homo sapiens, UniProt Q96RI1); assay: Inhibition of human FXR
Sequence of Bile acid receptor (Q96RI1 whole entry): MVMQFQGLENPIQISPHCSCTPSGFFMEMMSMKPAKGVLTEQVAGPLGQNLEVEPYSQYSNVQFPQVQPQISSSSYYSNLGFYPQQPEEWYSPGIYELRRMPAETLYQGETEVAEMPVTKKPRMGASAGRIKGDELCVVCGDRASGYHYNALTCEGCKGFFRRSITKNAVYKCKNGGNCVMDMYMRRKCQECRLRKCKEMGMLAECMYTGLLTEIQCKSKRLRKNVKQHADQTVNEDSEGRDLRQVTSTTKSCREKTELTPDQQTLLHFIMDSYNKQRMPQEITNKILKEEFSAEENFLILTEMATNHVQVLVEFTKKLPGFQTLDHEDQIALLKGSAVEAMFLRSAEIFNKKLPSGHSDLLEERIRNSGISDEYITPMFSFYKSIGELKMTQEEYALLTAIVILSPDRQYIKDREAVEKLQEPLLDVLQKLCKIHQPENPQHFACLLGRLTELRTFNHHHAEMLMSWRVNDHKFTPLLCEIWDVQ

[12] = target: Oxysterols receptor LXR-alpha (Mus musculus, UniProt Q9Z0Y9); assay: Inhibition of mouse LXRalpha
Sequence of Oxysterols receptor LXR-alpha (Q9Z0Y9 whole entry): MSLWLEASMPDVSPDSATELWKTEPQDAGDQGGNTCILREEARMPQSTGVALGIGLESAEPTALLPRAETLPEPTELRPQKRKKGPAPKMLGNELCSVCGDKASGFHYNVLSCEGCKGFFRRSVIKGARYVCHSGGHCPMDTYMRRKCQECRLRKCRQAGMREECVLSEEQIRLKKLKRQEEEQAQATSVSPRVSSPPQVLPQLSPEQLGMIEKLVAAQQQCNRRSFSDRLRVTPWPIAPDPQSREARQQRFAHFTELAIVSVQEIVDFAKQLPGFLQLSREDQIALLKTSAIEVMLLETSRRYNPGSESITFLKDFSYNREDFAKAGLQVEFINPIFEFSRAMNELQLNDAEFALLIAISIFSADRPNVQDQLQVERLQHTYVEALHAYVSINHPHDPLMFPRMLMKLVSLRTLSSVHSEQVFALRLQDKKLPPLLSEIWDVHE

[13] = target: Peroxisome proliferator-activated receptor alpha (Homo sapiens, UniProt Q07869); assay: Inhibition of human PPARalpha
[14] = target: Peroxisome proliferator-activated receptor gamma (Homo sapiens, UniProt P37231); assay: Inhibition of human PPARgamma
Sequence of Peroxisome proliferator-activated receptor gamma (P37231 whole entry): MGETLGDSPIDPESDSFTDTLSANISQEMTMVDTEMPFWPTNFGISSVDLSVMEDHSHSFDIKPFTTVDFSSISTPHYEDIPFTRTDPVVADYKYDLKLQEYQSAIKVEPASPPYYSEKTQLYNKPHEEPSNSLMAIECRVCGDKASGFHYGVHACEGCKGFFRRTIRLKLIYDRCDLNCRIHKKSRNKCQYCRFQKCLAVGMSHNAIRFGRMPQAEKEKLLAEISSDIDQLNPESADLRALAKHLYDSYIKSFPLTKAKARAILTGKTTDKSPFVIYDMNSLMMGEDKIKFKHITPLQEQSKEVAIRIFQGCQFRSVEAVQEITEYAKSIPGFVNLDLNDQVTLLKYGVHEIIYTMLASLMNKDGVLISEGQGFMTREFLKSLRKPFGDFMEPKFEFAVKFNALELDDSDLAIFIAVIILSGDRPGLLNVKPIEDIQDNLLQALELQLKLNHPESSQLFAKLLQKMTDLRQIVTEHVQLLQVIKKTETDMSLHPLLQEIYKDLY

[15] = target: Peroxisome proliferator-activated receptor delta (Homo sapiens, UniProt Q03181); assay: Inhibition of human PPARdelta
Progesterone receptor = Progesterone receptor (Homo sapiens, UniProt P06401); assay: Inhibition of human PR
[16] = target: Retinoic acid receptor alpha (Homo sapiens, UniProt P10276); assay: Inhibition of human RARalpha
Sequence of Retinoic acid receptor alpha (P10276 whole entry): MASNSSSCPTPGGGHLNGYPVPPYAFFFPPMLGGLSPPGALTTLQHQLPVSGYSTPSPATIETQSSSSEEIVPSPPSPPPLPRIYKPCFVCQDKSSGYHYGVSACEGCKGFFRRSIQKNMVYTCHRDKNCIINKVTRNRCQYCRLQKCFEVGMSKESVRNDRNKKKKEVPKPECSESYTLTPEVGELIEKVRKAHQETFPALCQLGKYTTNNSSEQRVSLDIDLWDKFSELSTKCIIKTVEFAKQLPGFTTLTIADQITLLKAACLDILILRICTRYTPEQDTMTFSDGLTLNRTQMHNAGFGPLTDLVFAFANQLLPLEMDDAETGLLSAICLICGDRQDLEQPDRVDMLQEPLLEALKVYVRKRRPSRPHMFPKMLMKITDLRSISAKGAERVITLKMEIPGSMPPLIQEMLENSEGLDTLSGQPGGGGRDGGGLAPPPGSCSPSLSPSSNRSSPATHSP

[17] = target: Retinoic acid receptor beta (Homo sapiens, UniProt P10826); assay: Inhibition of human RARbeta
Sequence of Retinoic acid receptor beta (P10826 whole entry): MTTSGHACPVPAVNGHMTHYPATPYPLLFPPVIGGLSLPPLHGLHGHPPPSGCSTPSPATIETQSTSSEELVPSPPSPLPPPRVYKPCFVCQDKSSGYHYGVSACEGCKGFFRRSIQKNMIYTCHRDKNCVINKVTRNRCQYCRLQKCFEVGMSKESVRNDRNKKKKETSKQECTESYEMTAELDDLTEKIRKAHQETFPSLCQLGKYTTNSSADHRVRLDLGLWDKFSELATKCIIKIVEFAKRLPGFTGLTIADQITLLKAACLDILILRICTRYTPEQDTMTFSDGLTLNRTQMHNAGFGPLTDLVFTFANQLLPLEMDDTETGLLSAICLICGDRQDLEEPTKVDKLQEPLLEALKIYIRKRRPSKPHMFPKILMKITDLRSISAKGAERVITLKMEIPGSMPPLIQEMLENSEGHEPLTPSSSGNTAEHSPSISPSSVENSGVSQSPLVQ

Mus musculus = assay: Inhibition of MOG/PTX/CD3 antibody-induced IL-17 production in po dosed C57BL/6 mouse plasma adminstered 3 to 8 hrs before CD3 antibody injection by ELISA; assay type: functional, organism-based

## Cc1ccc(NC(=O)CCc2nnc(CCCC(C)C)n2C2CC2)c(C)c1
[1]
  EC50: 0.61 µM
[2]
  remaining at 10 min: 67%
[3]
  remaining at 1 h: 27%
[4]
  EC50: 1.7 µM

## CCn1c(CCC(=O)Nc2cccc(Cl)c2C)nnc1CCC1CCCCC1
[1]
  EC50: 0.64 µM
[4]
  EC50: 0.96 µM

## Cc1ccc(NC(=O)CCc2nnc(-c3ccc(CC(C)C)cc3)n2C2CC2)c(C)c1
[1]
  EC50: 0.12 µM
[2]
  remaining at 10 min: 84%
[3]
  remaining at 1 h: 55%
[4]
  EC50: 1.8 µM

## Cc1ccc(NC(=O)CCc2nnc(CCC3CCCCC3)n2C2CC2(F)F)c(C)c1 (stereo not given)
[1]
  EC50: 0.5 µM
[2]
  remaining at 10 min: 75%
[3]
  remaining at 1 h: 59%
[4]
  EC50: 0.92 µM

## CCC(C)CCc1nnc(CCC(=O)Nc2ccc(C)cc2C)n1C1CC1 (racemic)
[1]
  EC50: 1.4 µM
[2]
  remaining at 10 min: 63%
[3]
  remaining at 1 h: 27%
[4]
  EC50: 3.9 µM

## Cc1ccc(NC(=O)CCc2nnc(CCCC(C)(C)C)n2C2CC2)c(C)c1
[1]
  EC50: 1.3 µM
[2]
  remaining at 10 min: 71%
[3]
  remaining at 1 h: 51%
[4]
  EC50: 2.8 µM

## CCn1c(CCC(=O)Nc2cccc3ccccc23)nnc1CC1CCCCC1
[1]
  EC50: 2.6 µM
[4]
  EC50: 14 µM

## CCn1c(CCC(=O)Nc2ccc(C)cc2C)nnc1CCC1CCCCC1
[1]
  EC50: 0.6 µM
[2]
  remaining at 10 min: 36%
[3]
  remaining at 1 h: 0%
[5]
  remaining at 10 min: 36%
[4]
  EC50: 0.9 µM

## Cc1ccc(NC(=O)CCc2nnc(-c3cc(CC(C)C)on3)n2C2CC2)c(C)c1
[1]
  EC50: 0.054 µM
[2]
  remaining at 10 min: 83%
[3]
  remaining at 1 h: 31%
[4]
  EC50: 0.45 µM

## Cc1ccc(NC(=O)[C@H]2C[C@@H](O)C[C@@H]2c2nnc([C@H]3C[C@@H](CC(C)C)C3)n2C2CC2)c(C)c1
[1]
  EC50: 0.038 µM
[2]
  remaining at 10 min: 87%
[3]
  remaining at 1 h: 76%
Cytochrome P450 3A4 [6]
  IC50: 3 µM
[4]
  EC50: 0.098 µM

## Cc1ccc(NC(=O)CCc2nnc([C@H]3C[C@@H](CC(C)C)C3)n2C2CC2)c(C)c1
[1]
  EC50: 0.035 µM
[2]
  remaining at 10 min: 70%
[3]
  remaining at 1 h: 39%
Cytochrome P450 3A4 [6]
  IC50: 5 µM
[4]
  EC50: 0.14 µM

## CCn1c(OCC(=O)Nc2cccc3ccccc23)nnc1C1Cc2ccccc2C1
[1]
  EC50: > 20 µM
[4]
  EC50: > 20 µM

## CCn1c(CCC(=O)Nc2cccc3ccccc23)nnc1CCC1CCCCC1
[1]
  EC50: 0.3 µM
[4]
  EC50: 0.82 µM

## Cc1ccc(NC(=O)CCc2nnc([C@H]3C[C@H](CC(C)C)C3)n2C2CC2)c(C)c1
[1]
  EC50: 0.053 µM
[2]
  remaining at 10 min: 68%
[3]
  remaining at 1 h: 31%
[4]
  EC50: 0.4 µM

## CCn1c(CCC(=O)Nc2cccc3ccccc23)nnc1CCc1ccccc1
[1]
  EC50: 0.63 µM
[4]
  EC50: 2.5 µM

## Cc1ccc(NC(=O)CCc2nnc(CCC3CCCCC3)n2C2CCC2)c(C)c1
[1]
  EC50: 1.8 µM
[2]
  remaining at 10 min: 49%
[3]
  remaining at 1 h: 27%
[4]
  EC50: 9.5 µM

## CCn1c(C(C)CC(=O)Nc2cccc3ccccc23)nnc1C1Cc2ccccc2C1 (racemic)
[1]
  EC50: 1.1 µM
[4]
  EC50: 1.7 µM

## CCn1c(C(O)CC(=O)Nc2cccc3ccccc23)nnc1C1Cc2ccccc2C1 (racemic)
[1]
  EC50: > 20 µM
[4]
  EC50: > 20 µM

## Cc1ccc(NC(=O)CCc2nnc(CCC3CCCCC3)n2C2CC2)c(C)c1
[1]
  EC50: 0.45 µM
[2]
  remaining at 10 min: 55%
[3]
  remaining at 1 h: 23%
[4]
  EC50: 0.98 µM

## CCn1c(CC(C)C(=O)Nc2cccc3ccccc23)nnc1C1Cc2ccccc2C1 (racemic)
[1]
  EC50: 0.67 µM
[4]
  EC50: 1.3 µM

## CCn1c(SCC(=O)Nc2cccc3ccccc23)nnc1C1Cc2ccccc2C1
[1]
  EC50: 0.7 µM
[7]
  EC50: 0.85 µM
[5]
  remaining at 10 min: 18%
Cytochrome P450 3A4 [8]
  IC50: 4 µM
[4]
  EC50: 1.7 µM

## CCn1c(CCC(=O)Nc2cccc3ccccc23)nnc1CCC(C)C
[1]
  EC50: 1.4 µM
[4]
  EC50: 13 µM

## Cc1ccc(NC(=O)[C@H]2CN(C)CC[C@@H]2c2nnc([C@H]3C[C@@H](CC(C)C)C3)n2C2CC2)c(C)c1 (racemic)
[1]
  EC50: 0.29 µM
[2]
  remaining at 10 min: 53%
[3]
  remaining at 1 h: 21%
[4]
  EC50: 0.23 µM

## CCn1c(CCC(=O)Nc2cc(C)cc(C)c2)nnc1CCC1CCCCC1
[1]
  EC50: 3.1 µM
[4]
  EC50: 2.9 µM

## CCn1c(CCC(=O)Nc2cccc3ccccc23)nnc1C1Cc2ccccc2C1
[1]
  EC50: 0.4 µM
[4]
  EC50: 1 µM

## CCn1c(CCC(=O)Nc2cccc3ccccc23)nnc1C1CCCCC1
[1]
  EC50: 4.5 µM
[4]
  EC50: > 20 µM

## CC(=O)N1C[C@H](C(=O)Nc2ccc(C)cc2C)[C@@H](c2nnc([C@H]3C[C@@H](CC(C)C)C3)n2C2CC2)C1
[2]
  remaining at 10 min: 86%
[3]
  remaining at 1 h: 61%
Cytochrome P450 3A4 [6]
  IC50: > 50 µM
Cytochrome P450 3A4 [6]; human, microsomes, 20 min, TDE = time-dependent effect
  inhibition (INH): tde
Cytochrome P450 2C9
  IC50: > 50 µM
Cytochrome P450 2D6
  IC50: > 50 µM
Cytochrome P450 1A2
  IC50: > 50 µM
Cytochrome P450 2A6
  IC50: > 50 µM
Cytochrome P450 2C19
  IC50: > 50 µM
[9]
  EC50: > 20 µM
Steroidogenic factor 1
  EC50: > 20 µM
[10]
  EC50: > 20 µM
Glucocorticoid receptor
  EC50: > 20 µM
[11]
  EC50: > 20 µM
Vitamin D3 receptor
  EC50: > 20 µM
Bile acid receptor
  EC50: > 20 µM
[12]
  EC50: > 20 µM
[13]
  EC50: > 20 µM
[14]
  EC50: > 20 µM
[15]
  EC50: > 20 µM
Progesterone receptor
  EC50: > 20 µM
[16]
  EC50: > 20 µM
[17]
  EC50: > 20 µM
Mus musculus
  inhibition: Dose-dependent effect

## CCn1c(CCC(=O)Nc2cccc3ccccc23)nnc1CCC(C)(C)C
[1]
  EC50: 0.83 µM
[4]
  EC50: 6.7 µM
